The source of these data is ChEMBL document CHEMBL1158451, “Generation of ligand-based pharmacophore model and virtual screening for identification of novel tubulin inhibitors with potent anticancer activity” (J Med Chem, 2009).

For test [1], the system named is KB. The experiment in a line: Growth inhibition of human KB cells by methylene blue assay. The test is classed as functional, cell-based.
The nature of test [2]: Inhibition of tubulin polymerization.
In test [3] the test system is HCT-116. The experiment in a line: Antiproliferative activity against human HCT116 xenografted tumor histoculture at 1 uM after 48 hrs by hematoxylin staining. The test is classed as functional, cell-based. On the technique in general: Xenograft models place foreign cells or tissue in a host animal.
For test [4], the system named is KB. Nature of the test: Cell cycle arrest in human KB cells assessed as accumulation at G2/M phase at 400 nM after 24 hrs using propidium iodide staining by flow cytometry. The test is classed as functional. In general terms: A flow cytometer gives signals particle by particle.
Another test concerns MCF7. The experiment in a line: Antiproliferative activity against human MCF7 cells after incubation for three generations by MTS assay. The format is functional, cell-based. On the technique in general: Formazan colour is commonly taken as a measure of viable cells.
Test [5] has as its system KB. The experiment in a line: Antiproliferative activity against human KB cells after incubation for three generations by MTS assay. The test is classed as functional, cell-based.
The subject of test [6] is KB. Nature of the test: Cell cycle arrest in human KB cells assessed as accumulation at G2/M phase after 24 hrs using propidium iodide staining by flow cytometry. The format is functional, cell-based.
For test [7], the system named is KB. The experiment in a line: Cell cycle arrest in human KB cells assessed as loss of accumulation at G0/G1 phase after 24 hrs using propidium iodide staining by flow cytometry. The test is classed as functional, cell-based.
The test system of another test is SF-268. Nature of the test: Antiproliferative activity against human SF268 cells after three generation of incubation by MTS assay. The format is functional, cell-based.
The species named for another test is Bos taurus. The experiment in a line: (§1) Inhibition of bovine brain tubulin polymerization after 30 mins by […] assay.
Test [8] in a line: as §1. Also on record: species or system Bos taurus.
The test system of test [9] is KB. Nature of the test: Cell cycle arrest in human KB cells assessed as accumulation at G2/M phase at 800 nM after 24 hrs using propidium iodide staining by flow cytometry. The format is functional.
The test system of another test is NCI-H460. The experiment in a line: Antiproliferative activity against human NCI-H460 cells after incubation for three generations by MTS assay. The test is classed as functional, cell-based.
Test [10] deals with KB. Nature of the test: Cell cycle arrest in human KB cells assessed as accumulation at G2/M phase at 400 nM using propidium iodide staining by flow cytometry. The test is classed as functional, cell-based. The conditions noted are these: TDE = time-dependent effect.
In test [11] the test system is KB. Nature of the test: Cell cycle arrest in human KB cells assessed as loss of accumulation at G0/G1 phase at 400 nM using propidium iodide staining by flow cytometry. The test is classed as functional, cell-based. Conditions: TDE = time-dependent effect.
The test system of test [12] is HCT-116. The experiment in a line: Antiproliferative activity against human HCT116 xenografted tumor histoculture at 100 uM after 48 hrs by hematoxylin staining. The format is functional, cell-based.
Test [13] deals with KB. The experiment in a line: Cell cycle arrest in human KB cells assessed as accumulation at sub-G1 phase at 400 nM using propidium iodide staining by flow cytometry. The test is classed as functional, cell-based. The conditions noted are these: TDE = time-dependent effect.
Test [14] concerns HCT-116. Nature of the test: Antiproliferative activity against human HCT116 xenografted tumor histoculture at 10uM after 48 hrs by hematoxylin staining. The format is functional, cell-based.
Test [15] in a line: Inhibition of bovine cerebral cortex tubulin polymerization up to 30 mins. Also on record: species or system Bos taurus.

The structures appear in SMILES notation. Calls of active or inactive are those of the source. The rule behind the calls is not given here.

The IC50 is the concentration needed to halve the response being measured. A higher IC50 goes with a need for much substance. In the test on KB [1], `CCCCCCc1[nH]c2cc(OC)ccc2c1C(=O)c1cc(OC)c(OC)c(OC)c1` showed an IC50 of 37.8 nM.

For `COc1ccc2c(C(=O)c3cc(OC)c(OC)c(OC)c3)c(CO)[nH]c2c1`, in the test with KB [1], the IC50 was 1.2 nM. This IC50 lies about 32-fold lower than the previous one.

`CCCCn1c(C)c(C(=O)c2cc(OC)c(OC)c(OC)c2)c2ccc(OC)cc21` returned an IC50 with KB [1] of 346 nM.

`CCN(CC)CCn1cc(C(=O)c2cc(OC)c(OC)c(OC)c2)c2ccc(OC)cc21`: in the test with KB [1], the IC50 worked out at 1800 nM.

In turn, `COc1ccc2c(C(=O)c3cc(OC)c(OC)c(OC)c3)cn(CCCCCCO)c2c1` gave an IC50 in the test on KB [1] of 70 nM.

For `CCn1cc(C(=O)c2cc(OC)c(OC)c(OC)c2)c2ccc(OC)cc21`, the IC50 in the test with KB [1] was determined as 64 nM.

In the case of `COc1ccc2c(C(=O)c3cc(OC)c(OC)c(OC)c3)cn(CCO)c2c1`, the IC50 in the test with KB [1] is 55 nM.

The compound `CCCc1[nH]c2cc(OC)ccc2c1C(=O)c1cc(OC)c(OC)c(OC)c1` gave an IC50 in the test with KB [1] of 11 nM. Compared with the last compound, the IC50 is about 5-fold lower.

Take `COc1ccc2c(C(=O)c3cc(OC)c(OC)c(OC)c3)c(CCCO)[nH]c2c1`: the IC50 in the test with KB [1] came out at 92 nM.

`COc1ccc2c(C(=O)c3cc(OC)c(OC)c(OC)c3)cn(CCN3CCCCCC3)c2c1` came in with an IC50 in the test on KB [1] of 280 nM.

The compound `CCCCCc1[nH]c2cc(OC)ccc2c1C(=O)c1cc(OC)c(OC)c(OC)c1` came in with an IC50 with KB [1] of 38 nM.

In the test on KB [1], `CCCCCn1cc(C(=O)c2cc(OC)c(OC)c(OC)c2)c2ccc(OC)cc21` had an IC50 of 350 nM.

As to `COc1ccc(-n2cc(C(=O)c3cc(OC)c(OC)c(OC)c3)c3ccc(OC)cc32)cc1`, in the test with KB [1], 207 nM corresponded to half-maximal inhibition (IC50).

In the case of `COc1ccc2c(C(=O)c3cc(OC)c(OC)c(OC)c3)cn(C)c2c1`, the IC50 in the test on KB [1] is 34 nM.

In turn, `COc1ccc2ccccc2c1-c1cc(C(=O)N/N=C/c2cccs2)[nH]n1` showed an IC50 in the test with KB [1] of 5700 nM.

On to `COc1ccc2c(C(=O)c3cc(OC)c(OC)c(OC)c3)cn(CCN3CCC[C@@H]3CO)c2c1`, for which, in the test on KB [1], the IC50 was 500 nM.

In the case of `COc1ccc2c(C(=O)c3cc(OC)c(OC)c(OC)c3)c(CCCCO)[nH]c2c1`, the IC50 in the test on KB [1] stood at 6.6 nM.

In the test with KB [1], `COc1ccc2c(C(=O)c3cc(OC)c(OC)c(OC)c3)c(C)n(CCN(C)C)c2c1` gave an IC50 of 332 nM.

In turn, `COc1ccc2c(C(=O)c3cc(OC)c(OC)c(OC)c3)cn(CCN3CCN(C)CC3)c2c1` gave an IC50 with KB [1] of 4100 nM.

Take `COc1ccc2c(C(=O)c3cc(OC)c(OC)c(OC)c3)cn(CCN3CCCCC3)c2c1`: in the test on KB [1], the IC50 came out at 93 nM.

For `COc1ccc2c(C(=O)c3cc(OC)c(OC)c(OC)c3)cn(CCCCCCN(C)C)c2c1`, the IC50 in the test on KB [1] turned out to be 2100 nM.

Compound `O=C(/C=C/c1ccccc1)c1ccccc1` [CHALCONE] gave an IC50 in test [2] of 10000 nM.

For the compound `Cc1ccc(CCC(=O)Nc2ncc(Cc3cc(Cl)ccc3Cl)s2)o1`, the outcome in the test with HCT-116 [3], in the test on HCT-116 [12] and with HCT-116 [14] was Active. The Activity is 55.6% in the test on KB [4]; “Dose-dependent effect” in the test on KB [6]; “Dose-dependent effect” in the test on KB [7]; “Dose-dependent effect” in the test listed under Bos taurus; 70.3% in the test with KB [9]; “tde” in the test on KB [10]. The Activity entry with KB [11] and with KB [13] was “tde” each time. Also, the IC50 in the test with MCF7 amounted to 236 nM; in the test on KB [5], 187 nM; with SF-268 it was 319 nM; in test [8], 4400 nM; in the test on NCI-H460 it was 285 nM; in the test on KB [1], 187 nM.

The compound `COc1ccc2c(C(=O)c3cc(OC)c(OC)c(OC)c3)c(C)n(CCN3CCCCC3)c2c1` returned an IC50 in the test with KB [1] of 222 nM.

On to `COc1ccc2c(C(=O)c3cc(OC)c(OC)c(OC)c3)c(CN(C)C)[nH]c2c1`, for which the IC50 in the test on KB [1] was 49.8 nM.

In [2], `COc1cc2c(c(N)c1OC)C(=O)/C(=C\c1cc(C)c(O)c(C)c1)C2` [INDANOCINE] yielded an IC50 of 1700 nM. This counts as single-digit micromolar.

In the case of `CCCCCCn1cc(C(=O)c2cc(OC)c(OC)c(OC)c2)c2ccc(OC)cc21`, 455 nM corresponded to half-maximal inhibition in the test with KB [1] (IC50).

In the case of `COc1ccc2c(C(=O)c3cc(OC)c(OC)c(OC)c3)cn(CCCCO)c2c1`, inhibition in the test with KB [1] was half-maximal at 75 nM (IC50).

`CCN(CC)CCn1c(C)c(C(=O)c2cc(OC)c(OC)c(OC)c2)c2ccc(OC)cc21` showed an IC50 with KB [1] of 288 nM.

`COc1ccc2c(C(=O)c3cc(OC)c(OC)c(OC)c3)cn(CCCCN(C)C)c2c1`: in the test with KB [1], the IC50 was 6000 nM. Compared with the last compound, the IC50 is about 21-fold higher.

With `COc1ccc2c(C(=O)c3cc(OC)c(OC)c(OC)c3)cn(CCN(C)C)c2c1`, in the test with KB [1], the IC50 was found to be 200 nM.

Turning to `CCOC(=O)Cc1[nH]c2cc(OC)ccc2c1C(=O)c1cc(OC)c(OC)c(OC)c1`, the IC50 with KB [1] is 3.9 nM.

`COc1ccc2c(C(=O)c3cc(OC)c(OC)c(OC)c3)cn(CCCN(C)C)c2c1`: it took 1700 nM to reach half-maximal inhibition in the test with KB [1] (IC50). This IC50 lies about 440-fold higher than the previous one.

The compound `COc1ccc2c(C(=O)c3cc(OC)c(OC)c(OC)c3)cn(C(C)C)c2c1` showed an IC50 with KB [1] of 287 nM.

On to `COc1ccc2c(C(=O)c3cc(OC)c(OC)c(OC)c3)cn(CCCCCN(C)C)c2c1`, for which the IC50 in the test with KB [1] came out at 1800 nM.

As to `CCOC(=O)n1cc(C(=O)c2cc(OC)c(OC)c(OC)c2)c2ccc(OC)cc21`, in the test on KB [1], inhibition was half-maximal at 73 nM (IC50).

`COc1ccc2c(C(=O)c3cc(OC)c(OC)c(OC)c3)cn(Cc3ccncc3)c2c1`: the IC50 in the test with KB [1] came out at 210 nM.

The compound `COc1ccc2c(C(=O)c3cc(OC)c(OC)c(OC)c3)cn(S(=O)(=O)c3ccccc3)c2c1` showed an IC50 in the test on KB [1] of 200 nM.

As for `COc1ccc2c(C(=O)c3cc(OC)c(OC)c(OC)c3)c(CCCCCO)[nH]c2c1`, the IC50 in the test with KB [1] was 57.3 nM. Compared with the last compound, the IC50 is about 3.5-fold lower.

The compound `COC(=O)c1[nH]c2cc(OC)ccc2c1C(=O)c1cc(OC)c(OC)c(OC)c1` came in with an IC50 with KB [1] of 5.5 nM.

In the test on KB [1], `Cc1ccc(C)c(Nc2cc(C)nc(-c3ccccc3O)n2)c1` gave an IC50 of 3000 nM.

`COc1ccc2c(C(=O)c3cc(OC)c(OC)c(OC)c3)cn(-c3ccc([N+](=O)[O-])cc3)c2c1`: in the test on KB [1], 290 nM corresponded to half-maximal inhibition (IC50). Against the preceding compound, the IC50 is about 10-fold lower.

The compound `COc1ccc2c(C(=O)c3cc(OC)c(OC)c(OC)c3)cn(CCN3CCCC3)c2c1` returned an IC50 in the test on KB [1] of 406 nM. This IC50 and that of the compound before are within 1.5-fold of each other.

Regarding `COc1ccc2c(C(=O)c3cc(OC)c(OC)c(OC)c3)cn(C(=O)N3CCOCC3)c2c1`, 237 nM corresponded to half-maximal inhibition in the test with KB [1] (IC50).

`COc1ccc2c(C(=O)c3cc(OC)c(OC)c(OC)c3)cn(CCN3CCN(c4ccccn4)CC3)c2c1` returned an IC50 in the test with KB [1] of 292 nM.

As for `CCCCc1[nH]c2cc(OC)ccc2c1C(=O)c1cc(OC)c(OC)c(OC)c1`, the IC50 in the test with KB [1] worked out at 14.3 nM.

With `C1=NNCO1` [OXADIAZOLINE], the midpoint of inhibition in [15], the IC50, lay at 4500 nM.

`CCCn1cc(C(=O)c2cc(OC)c(OC)c(OC)c2)c2ccc(OC)cc21`: it took 180 nM to reach half-maximal inhibition in the test with KB [1] (IC50).

In the test with KB [1], `COc1ccc2c(C)cc(N/N=C/c3ccccc3O)nc2c1` had an IC50 of 2000 nM.
